Assay [1] relates to normal human primary dermal fibroblasts. Briefly: Antiproliferative activity, MTS assay, healthy fibroblasts. The assay is classed as cell-based. As to conditions: 48 h exposure, healthy human cells. As to the method:
(§1) Human colorectal carcinoma cell line (HCT116), human breast cancer cell lines (MDA-MB-231 and MCF-7), and normal human primary dermal fibroblasts neonatal (PCS-201-010) cell line were grown in DMEM (Dulbecco’s modified Eagle’s medium) (Invitrogen Corp., Grand Island, NY, USA) supplemented with 10% (v/v) fetal bovine serum and 1% (v/v) antibiotic/antimycotic solution (Invitrogen Corp.). The human ovarian carcinoma (A2780) cell line was cultivated using RPMI (Roswell Park Memorial Institute) medium supplemented as in DMEM medium. The supplemented medium is named a complete medium. Cells were grown in an incubator with a humidified atmosphere at 5% (v/v) CO2 and 37 °C. All cell lines were purchased from ATCC (ATCC, American Type Culture Collection).
(§2) The evaluation of the cytotoxic potential of complexes 1–4 was obtained through in vitro measurements of the antiproliferative activity of these complexes. Cells were plated in 96-well plates at 7.5 × 10^4 cells/mL and incubated at 37 °C with 5% (v/v) CO2. After 24 h, the culture medium was replaced with fresh medium (100 μL) containing 0.1–50 μM of the different complexes and incubated for 48 h in tumor cell lines or containing 0.1–100 μM of the different complexes and incubated for 48 h in fibroblasts. […] The fibroblast cell line was used as a control of the cytotoxicity of the complexes for healthy cells. Cell viability was evaluated using Cell Titer 96 Aqueous Non-Radioactive Cell Proliferation Assay (Promega, Madison, WI, USA) using 3-(4,5-dimethylthiazol-2-yl)-5-(3-carboxymethoxyphenyl)-2-(4-sulfophenyl)-2H-tetrazolium inner salt (MTS), as described previously.[60] In metabolically active cells, enzymes present in the mitochondria catalyze a reaction in which NADPH/NADH is produced. These enzymes reduce the MTS reagent into a brownish product, Formazan, which can be quantified by measuring the absorbance at 490 nm. The quantity of formazan produced is directly proportional to the number of viable cells in the culture. This quantification was executed with a Biorad microplate reader Model 680 (Bio-Rad, Hercules, CA, USA). Half maximal inhibitory concentration (IC50) was calculated using GraphPad Prism 6 (GraphPadSoftware). We have calculated the ratio between the IC50 of fibroblasts and the IC50 of HCT116, A2780, MDA-MB-231, or MCF-7 cell lines for complexes 1–4 that was named herein as the Selectivity index (SI). To ensure the solubility of the complexes in all biological assays, complex solutions were freshly prepared and well solubilized before addition to the cells.
On the technique in general: Formazan colour is commonly taken as a measure of viable cells.

Another assay concerns Calf Thymus DNA (CT-DNA). Briefly: Calf thymus DNA binding assays (UV-vis, melting profile). As to conditions: UV spectroscopy, 25 μM complex. On the procedure: Calf Thymus DNA (CT-DNA) binding assay was performed through the UV–vis spectra from 230 to 700 nm on the spectrophotometer Evolution 300 UV–vis (Thermo Fischer Scientific, Waltham, MA, USA). It was used a filtered buffer (5 mM Tris–HCl, 50 mM NaCl, pH 7.02) for the dilution of 0–50 μM of CT-DNA and 25 μM of the complexes 2–4. Control solutions of CT-DNA, CT-DNA + DMSO, and DMSO were also prepared. All solutions were incubated for 24 h at 37 °C and then analyzed. CT-DNA concentration in […] had been determined at 260 nm in a NanoDrop2000 spectrophotometer (Thermo Scientific), using an extinction coefficient of 6600 M^–1 cm^–1. The dilution effect because of the addition of the DNA solution was corrected and the affinity constants were calculated according to eq 2: [drawing 2] 2 where [DNA] is the concentration of CT-DNA (per nucleotide phosphate), εa = Abs/[complex], εf is the extinction coefficient for the free complex, and εb is the extinction coefficient for [Co(η^5-C5H5)(PPh3)(NN)][(CF3SO3)2] when fully bound to DNA. DNA concentration (expressed as the molarity of phosphate groups) was determined with a NanoDrop 2000 spectrophotometer assuming ε260 = 6600 M^–1 cm^–1. A melting profile of 10 μM CT-DNA and 10 μM CT-DNA with 10 μM of the complexes 2–4, was also performed. Evagreen dye was added to all samples after a 1h 30 min incubation of CT-DNA with the complexes at 37 °C. Melting curves were analyzed in a Corbet RotorGene 6000 (Biorad, Spain) by a first incubation step at 37 °C for 5 min followed by a ramp from 37 to 95 °C with 90 s hold in the first step and 5 s hold in the next steps with green acquisition.

For assay [2], the system named is MCF-7 (human breast cancer) cell line. Put plainly: Antiproliferative activity, MTS assay, MCF-7. The assay is classed as cell-based. The note with it: for IC50: 48 h exposure, MTS assay. On the procedure:
as §1, §2

Another assay concerns A2780 cell line. Briefly: Autophagy induction, flow cytometry. The format is cell-based, human. As to conditions: for levels of autophagy: A2780, 48 h, complexes at IC50, DOX 0.4 μM, cisplatin 5 μM, rapamycin 500 nM for 15 h; for increase of autophagy compared to the control: A2780, IC50, 48 h, vs DMSO 0.1%. On the procedure: The autophagy induced by complexes 2–4 was evaluated using the Autophagy Assay Kit (ab139484, Abcam, Cambridge, United Kingdom) according to the manufacturer’s instructions. For this, the A2780 cell line was seeded at a density of 2 × 10^5 cells/well in 6-well plates and incubated for 24 h at the conditions mentioned before. […] The positive control Rapamycin at 500 nM was incubated for only 15 h. After 48 h incubation, the cells were washed with PBS 1×, detached with TE, and treated with the Autophagy detection kit (Abcam, Cambridge, UK) according to the manufacturer’s instructions. The evaluation of autophagy induction was done through the Attune acoustic focusing flow cytometer (ThermoFisher Scientific) and respective software.

Molecules are shown by their SMILES.

The term IC50 denotes the concentration that inhibits the measured activity by half.

In turn, `Cc1ccnc(-c2cc(C)ccn2)c1.O=S(=O)([O-])C(F)(F)F.O=S(=O)([O-])C(F)(F)F.[Co+3].c1cc[cH-]c1.c1ccc(P(c2ccccc2)c2ccccc2)cc1` [Complex 2, [Co(η^5-C5H5)(PPh3)(Me2bipy)][(CF3SO3)2]] showed an IC50 in assay [1] of over 100 µM. Besides, the “effect on lowest-energy absorption band with increasing CT-DNA” value (“effect … with increasing CT-DNA” for short) in the assay with Calf Thymus DNA (CT-DNA) is reported as “a small hyperchromic effect”. Further, in assay [2], the IC50 is over 50 µM. Further, in the assay on A2780 cell line, the levels of autophagy stood at 81.5% and the “increase of autophagy compared to the control” value (from here on “increase of autophagy”) was found to be 1.9 ×.

As for `O=S(=O)([O-])C(F)(F)F.O=S(=O)([O-])C(F)(F)F.[Co+3].c1cc[cH-]c1.c1ccc(P(c2ccccc2)c2ccccc2)cc1.c1cnc2c(c1)ccc1cccnc12` [Complex 3, [Co(η^5-C5H5)(PPh3)(phen)][(CF3SO3)2]], the concentration for half-maximal inhibition (IC50) in assay [1] was over 100 µM; in assay [2], over 50 µM. For the same molecule, in the assay on Calf Thymus DNA (CT-DNA), the “effect … with increasing CT-DNA” value is on record as “a hypochromic effect”. For the same molecule, the “increase of autophagy” value in the assay on A2780 cell line was found to be 1.5 ×.

As for `Nc1cc2cccnc2c2ncccc12.O=S(=O)([O-])C(F)(F)F.O=S(=O)([O-])C(F)(F)F.[Co+3].c1cc[cH-]c1.c1ccc(P(c2ccccc2)c2ccccc2)cc1` [Complex 4, [CoCp(PPh3)(NH2phen)][(CF3SO3)2]], the IC50 in assay [1] was over 100 µM. Besides, the “effect … with increasing CT-DNA” value in the assay with Calf Thymus DNA (CT-DNA) is “a hypochromic effect”. In assay [2], this molecule gave an IC50 of 10.2 ± 0.1 µM. For the same molecule, the “Selectivity index (SI), MCF-7” value in assay [2] (IC50 fibroblasts/IC50 MCF-7, value with * calculated taking fibroblast IC50 as 100 μM (minimal value)) was 9.8*. In addition, in the assay with A2780 cell line, the levels of autophagy is given as 95.5% and the “increase of autophagy” value is 2.2 ×.

Source of the values: PMC10988555, “Exploiting Co(III)-Cyclopentadienyl Complexes To Develop Anticancer Agents” (Inorganic Chemistry, 2024).
